Test results taken from ChEMBL document CHEMBL1128864, “Antitumor activities of -, -monogalactosylceramides and four diastereomers of an -galactosylceramide” (1995).

What was measured:
Type in all cases: functional
Mus musculus [1] = organism: Mus musculus; assay: Evaluated for lymphocyte proliferation stimulatory effect in BALB/c mice and percent control of [3H]TdR incorporation at dose 100 ng/ml using allogenic mixed lymphocyte reaction (MLR)
Mus musculus [2] = assay: Evaluated for life span prolonging effects against female BDF1 mice infected intraperitoneally 1x10E6 P388 cells on day 0 at intravenous dose 0.1 mg/kg on day 1,5,9
Mus musculus [3] = assay: Evaluated for life span prolonging effects against female BDF1 mice infected intraperitoneally 1x10E6 murine melanoma B16 cells on day 0 at dose of 0.1 mg/kg; details: route intraperitoneal
Mus musculus [4] = organism: Mus musculus; assay: Evaluated for lymphocyte proliferation stimulatory effect in BALB/c mice and percent control of [3H]-TdR incorporation using allogenic mixed lymphocyte reaction (MLR) at a dose 10 ng/ml
Mus musculus [5] = assay: Evaluated for life span prolonging effects against female BDF1 mice infected intraperitoneally 1x10E6 murine melanoma B16 cells on day 0 at dose of 1 mg/kg; details: route intraperitoneal
Mus musculus [6] = organism: Mus musculus; assay: Evaluated for lymphocyte proliferation stimulatory effect in BALB/c mice and percent control of [3H]TdR incorporation using allogenic mixed lymphocyte reaction (MLR) at a dose 1 ng/ml
Mus musculus [7] = assay: Percent of tumor growth inhibition ratio (TGIR)of the compound administered intravenously at dose 100 ug/kg(on day 7, 11,15) in subcutaneously infected BDF1 mice on day 22
Mus musculus [8] = assay: Percent of tumor growth inhibition ratio (TGIR)of the compound administered intravenously at dose 100 ug/kg(on day 7, 11,15) in subcutaneously infected BDF1 mice on day 11
Mus musculus [9] = assay: Percent of tumor growth inhibition ratio (TGIR)of the compound administered intravenously at dose 100 ug/kg(on day 7, 11,15) in subcutaneously infected BDF1 mice on day 14
Mus musculus [10] = assay: Percent of tumor growth inhibition ratio (TGIR)of the compound administered intravenously at dose 100 ug/kg(on day 7, 11,15) in subcutaneously infected BDF1 mice on day 18
Mus musculus [11] = assay: Percent of tumor growth inhibition ratio (TGIR)of the compound administered intravenously at dose 100 ug/kg on day 1, 5, 9 in subcutaneously (murine fibrosarcoma Meth A cells) infected in BDF1 mice on day 13
Mus musculus [12] = assay: Percent of tumor growth inhibition ratio (TGIR)of the compound administered intravenously at dose 100 ug/kg(on day 1, 5, 9) in subcutaneously infected BDF1 mice on day 20
Mus musculus [13] = assay: Percent of tumor growth inhibition ratio (TGIR)of the compound administered intravenously at dose 100 ug/kg on day 1, 5, 9 in subcutaneously (murine fibrosarcoma Meth A cells) infected in BDF1 mice on day 16
Mus musculus [14] = assay: Percent of tumor growth inhibition ratio (TGIR)of the compound administered intravenously at dose 100 ug/kg on day 1, 5, 9 in subcutaneously (murine fibrosarcoma Meth A cells) infected in BDF1 mice on day 10
Mus musculus [15] = assay: Percent of tumor growth inhibition ratio (TGIR)of the compound administered intravenously at dose 100 ug/kg(on day 1, 5, 9) in subcutaneously infected BDF1 mice on day 9
Mus musculus [16] = assay: Percent of tumor growth inhibition ratio (TGIR)of the compound administered intravenously at dose 100 ug/kg(on day 1, 5, 9) in subcutaneously infected BDF1 mice on day 12
Mus musculus [17] = assay: Percent of tumor growth inhibition ratio (TGIR)of the compound administered intravenously at dose 100 ug/kg on day 1, 5, 9 in subcutaneously (murine fibrosarcoma Meth A cells) infected in BDF1 mice on day 20
Mus musculus [18] = assay: Percent of tumor growth inhibition ratio (TGIR)of the compound administered intravenously at dose 100 ug/kg(on day 1, 5, 9) in subcutaneously infected BDF1 mice on day 16

Structure (SMILES): CCCCCCCCCCCCCCCCCCCCCC[C@@H](O)C(=O)N[C@@H](CO[C@H]1O[C@@H](CO)[C@H](O)[C@H](O)[C@@H]1O)[C@H](O)[C@H](O)CCCCCCCCCCCC(C)C
- Control (Mus musculus [1]): 236%
- Survival (Mus musculus [2]): 11.3 days
- T/C (Mus musculus [2]): 109%
- Survival (Mus musculus [3]): 27.6 days
- T/C (Mus musculus [3]): 149%
- Control (Mus musculus [4]): 220%
- Survival (Mus musculus [5]): 27 days
- T/C (Mus musculus [5]): 146%
- Control (Mus musculus [6]): 184%

Structure (SMILES): CCCCCCCCCCCCCCCCCCCCCC[C@@H](O)C(=O)N[C@@H](CO[C@H]1O[C@@H](CO)[C@H](O)[C@H](O)[C@@H]1O)[C@H](O)[C@H](O)CCCCCCCCCCCC
- Control (Mus musculus [1]): 350%
- Survival (Mus musculus [2]): 11 days
- T/C (Mus musculus [2]): 106%
- Survival (Mus musculus [3]): 26.8 days
- T/C (Mus musculus [3]): 145%
- Control (Mus musculus [4]): 258%
- Survival (Mus musculus [5]): 31.5 days
- T/C (Mus musculus [5]): 170%
- Control (Mus musculus [6]): 253%

Structure (SMILES): CCCCCCCCCCCCCCCCCCCCCCC[C@@H](O)C(=O)N[C@@H](CO[C@H]1O[C@@H](CO)[C@H](O)[C@H](O)[C@@H]1O)[C@H](O)[C@H](O)CCCCCCCCCCCC(C)CC (some centres undefined)
- Control (Mus musculus [1]): 319%
- Survival (Mus musculus [2]): 11.2 days
- T/C (Mus musculus [2]): 108%
- Survival (Mus musculus [3]): 28 days
- T/C (Mus musculus [3]): 151%
- Control (Mus musculus [4]): 281%
- Survival (Mus musculus [5]): 32 days
- T/C (Mus musculus [5]): 173%
- Control (Mus musculus [6]): 233%

Structure (SMILES): CCCCCCCCCCCCCCCCCCCCCC[C@@H](O)C(=O)N[C@@H](CO[C@H]1O[C@@H](CO)[C@H](O)[C@H](O)[C@@H]1O)[C@H](O)[C@H](O)CCCCCCCCCCCC(C)CC (some centres undefined)
- Control (Mus musculus [1]): 255%
- Survival (Mus musculus [2]): 11.2 days
- T/C (Mus musculus [2]): 108%
- Survival (Mus musculus [3]): 28.2 days
- T/C (Mus musculus [3]): 152%
- Control (Mus musculus [4]): 209%
- Survival (Mus musculus [5]): 34.5 days
- T/C (Mus musculus [5]): 187%
- Control (Mus musculus [6]): 179%

Structure (SMILES): CCCCCCC/C=C/C(C)=C/CC/C=C/[C@@H](O)[C@H](CO[C@H]1O[C@@H](CO)[C@H](O)[C@H](O)[C@@H]1O)NC(=O)[C@H](O)CCCCCCCCCCCCCCCCCCCCCC
- Control (Mus musculus [1]): 169%
- Survival (Mus musculus [2]): 11.3 days
- T/C (Mus musculus [2]): 109%
- Survival (Mus musculus [3]): 21.3 days
- T/C (Mus musculus [3]): 115%
- Control (Mus musculus [4]): 134%
- Survival (Mus musculus [5]): 23.7 days
- T/C (Mus musculus [5]): 127%
- Control (Mus musculus [6]): 142%

Structure (SMILES): CCCCCCCCCCCCCC(=O)N[C@H](CO[C@H]1O[C@@H](CO)[C@H](O)[C@H](O)[C@@H]1O)[C@@H](O)CCCCCCCCCCCCC
- TGIR (Mus musculus [7]): 40.1%
- TGIR (Mus musculus [8]): 55.9%
- TGIR (Mus musculus [9]): 52.6%
- TGIR (Mus musculus [10]): 42.2%

Structure (SMILES): CCCCCCCCCCCCCC(=O)N[C@@H](CO[C@H]1O[C@@H](CO)[C@H](O)[C@H](O)[C@@H]1O)[C@H](O)CCCCCCCCCCCCC
- TGIR (Mus musculus [7]): 67.9%
- TGIR (Mus musculus [8]): 76.5%
- TGIR (Mus musculus [9]): 66.6%
- TGIR (Mus musculus [10]): 66.4%

Structure (SMILES): CCCCCCCCCCCCCC(=O)N[C@H](CO[C@H]1O[C@@H](CO)[C@H](O)[C@H](O)[C@@H]1O)[C@H](O)CCCCCCCCCCCCC
- TGIR (Mus musculus [7]): 5.1%
- TGIR (Mus musculus [9]): 13%
- TGIR (Mus musculus [10]): 11%

Structure (SMILES): CCCCCCCCCCCCCC(=O)N[C@@H](CO[C@H]1O[C@@H](CO)[C@H](O)[C@H](O)[C@@H]1O)[C@@H](O)CCCCCCCCCCCCC
- TGIR (Mus musculus [7]): 13.1%
- TGIR (Mus musculus [9]): 4.9%
- TGIR (Mus musculus [10]): 8.5%

Structure (SMILES): CCCCCCCCCCCCCCCCCCCCCCCCCC(=O)N[C@@H](CO[C@H]1O[C@@H](CO)[C@H](O)[C@H](O)[C@@H]1O)[C@H](O)[C@H](O)CCCCCCCCCCCCCC
- TGIR (Mus musculus [7]): -3.8%
- TGIR (Mus musculus [8]): 16.1%
- TGIR (Mus musculus [9]): 17.2%
- TGIR (Mus musculus [10]): 20.3%

Structure (SMILES): CCCCCCCCCCCCCCC[C@@H](O)[C@H](CO[C@H]1O[C@@H](CO)[C@H](O)[C@H](O)[C@@H]1O)NC(=O)CCCCCCCCCCCCC (stereo in doubt; form 1)
- TGIR (Mus musculus [11]): 33.1%
- TGIR (Mus musculus [12]): 28.3%
- TGIR (Mus musculus [13]): 22.1%
- TGIR (Mus musculus [14]): 26.9%
- TGIR (Mus musculus [15]): 29%
- TGIR (Mus musculus [16]): 38%
- TGIR (Mus musculus [17]): 3.9%
- TGIR (Mus musculus [18]): 35%

Structure (SMILES): CCCCCCCCCCCCCCC[C@@H](O)[C@H](CO[C@H]1O[C@@H](CO)[C@H](O)[C@H](O)[C@@H]1O)NC(=O)CCCCCCCCCCCCC (stereo in doubt; form 2)
- TGIR (Mus musculus [11]): 45%
- TGIR (Mus musculus [12]): -7.6%
- TGIR (Mus musculus [13]): 29.2%
- TGIR (Mus musculus [14]): 45.2%
- TGIR (Mus musculus [15]): -28%
- TGIR (Mus musculus [16]): 2.7%
- TGIR (Mus musculus [17]): 7%
- TGIR (Mus musculus [18]): 1.4%

Structure (SMILES): CCCCCCCCCCCCCCC[C@@H](O)[C@H](CO[C@H]1O[C@@H](CO)[C@H](O)[C@H](O)[C@@H]1O)NC(=O)CCCCCCCCCCCCC (stereo in doubt; form 3)
- TGIR (Mus musculus [11]): 41.5%
- TGIR (Mus musculus [12]): 4.2%
- TGIR (Mus musculus [13]): 28.9%
- TGIR (Mus musculus [14]): 45.6%
- TGIR (Mus musculus [15]): 35.3%
- TGIR (Mus musculus [16]): 45.2%
- TGIR (Mus musculus [17]): 21.3%
- TGIR (Mus musculus [18]): 26.8%

Structure (SMILES): CCCCCCCCCCCCCCC[C@@H](O)[C@H](CO[C@H]1O[C@@H](CO)[C@H](O)[C@H](O)[C@@H]1O)NC(=O)CCCCCCCCCCCCC (stereo in doubt; form 4)
- TGIR (Mus musculus [11]): 68.1%
- TGIR (Mus musculus [12]): 54%
- TGIR (Mus musculus [13]): 58.1%
- TGIR (Mus musculus [14]): 69%
- TGIR (Mus musculus [15]): 59.5%
- TGIR (Mus musculus [16]): 62%
- TGIR (Mus musculus [17]): 36.7%
- TGIR (Mus musculus [18]): 64.8%

Structure (SMILES): CCCCCCCCCCCCCCCCCCCCCCCCCC(=O)N[C@@H](CO[C@H]1O[C@H](CO)[C@H](O)[C@H](O)[C@H]1O)[C@H](O)[C@H](O)CCCCCCCCCCCCCC [RGI-7000]
- TGIR (Mus musculus [7]): 40.2%
- TGIR (Mus musculus [8]): 41.1%
- TGIR (Mus musculus [9]): 50.9%
- TGIR (Mus musculus [10]): 51.1%
